Experimental data as given in publication PMC9520563 (ACS Omega, 2022).

How the values were obtained:
MDA-MB-231 [1] = test: cells; details: Homo sapiens, MDA-MB-231, 72 h, read-out: IC50 MDA-MB-231
HepG2 [2] = test: cells; details: Homo sapiens, HepG2, 72 h, read-out: IC50 HepG2
MDA-MB-231 [3] = details: IC50 on LLC-PK1 divided by IC50 on MDA-MB-231
HepG2 [4] = details: IC50 on LLC-PK1 divided by IC50 on HepG2
porcine brain tubulin = porcine brain tubulin (Sus scrofa, UniProt P02550+P02554); test: biochemical; details: read-out: % inhibition of tubulin polymerization
Chain of porcine brain tubulin (P02550 whole entry): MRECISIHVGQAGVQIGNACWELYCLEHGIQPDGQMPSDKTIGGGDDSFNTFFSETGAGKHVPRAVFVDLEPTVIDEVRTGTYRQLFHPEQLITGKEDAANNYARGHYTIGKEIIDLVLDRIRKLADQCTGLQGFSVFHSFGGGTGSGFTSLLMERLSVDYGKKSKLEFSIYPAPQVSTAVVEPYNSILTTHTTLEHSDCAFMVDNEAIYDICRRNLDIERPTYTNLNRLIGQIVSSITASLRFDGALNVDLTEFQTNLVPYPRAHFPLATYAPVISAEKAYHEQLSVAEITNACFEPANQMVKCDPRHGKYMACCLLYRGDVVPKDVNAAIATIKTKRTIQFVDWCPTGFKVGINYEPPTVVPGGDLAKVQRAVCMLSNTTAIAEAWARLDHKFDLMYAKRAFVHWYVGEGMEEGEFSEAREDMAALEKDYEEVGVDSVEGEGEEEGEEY
Chain of porcine brain tubulin (P02554 whole entry): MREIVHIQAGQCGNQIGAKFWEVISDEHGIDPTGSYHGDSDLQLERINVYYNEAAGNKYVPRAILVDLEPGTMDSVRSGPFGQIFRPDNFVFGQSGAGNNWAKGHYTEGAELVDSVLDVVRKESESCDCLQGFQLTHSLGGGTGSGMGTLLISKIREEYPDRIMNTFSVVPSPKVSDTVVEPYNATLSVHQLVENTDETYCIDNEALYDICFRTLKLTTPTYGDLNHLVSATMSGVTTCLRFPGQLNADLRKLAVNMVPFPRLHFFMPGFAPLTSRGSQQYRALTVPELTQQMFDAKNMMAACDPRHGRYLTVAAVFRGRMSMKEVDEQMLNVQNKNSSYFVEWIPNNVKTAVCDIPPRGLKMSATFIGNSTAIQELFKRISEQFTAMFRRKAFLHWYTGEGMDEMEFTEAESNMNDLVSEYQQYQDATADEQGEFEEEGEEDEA

IC50 (MDA-MB-231 [1]) | IC50 (HepG2 [2]) | inhibition at 20 µM (porcine brain tubulin) | Structure (SMILES) | SI MDA-MB-231 (MDA-MB-231 [3]) | SI HepG2 (HepG2 [4])
8.79 ± 0.96 µM | 12 ± 0.56 µM | – | CC(=O)O[C@H]1C(=O)[C@@]2(C)[C@H]([C@H](OC(=O)c3ccccc3)[C@]3(O)C[C@H](OC(=O)[C@H](O)[C@@H](NC(=O)c4ccccc4)c4ccccc4)C(C)=C1C3(C)C)[C@]1(OC(C)=O)CO[C@@H]1C[C@@H]2O [paclitaxel, reference compound] | – | –
22 ± 3.24 µM | > 25 µM | – | O=C(/C=C/c1ccc2c(c1)OCO2)/C=C/c1cn(-c2ccccc2)nc1-c1ccccc1 [Compound 10f, (1E,4E)-1-(Benzo[d][1,3]dioxol-5-yl)-5-(1,3-diphenyl-1H-pyrazol-4-yl)penta-1,4-dien-3-one] | – | –
12.3 ± 1.29 µM | 18.3 ± 3.14 µM | – | COc1ccc(/C=C/C(=O)/C=C/c2c(C)nn(-c3cccc([N+](=O)[O-])c3)c2Cl)c(OC)c1 [Compound 8b, (1E,4E)-1-[5-Chloro-3-methyl-1-(3-nitrophenyl)-1H-pyrazol-4-yl]-5-(2,4-dimethoxyphenyl)penta-1,4-dien-3-one] | – | –
2.43 ± 0.04 µM | 14.65 ± 0.1 µM | – | COc1cc(/C=C/C(=O)/C=C/c2c(C)nn(-c3cccc([N+](=O)[O-])c3)c2Cl)cc(OC)c1OC [Compound 8g, (1E,4E)-1-(5-Chloro-3-methyl-1-(3-nitrophenyl)-1H-pyrazol-4-yl)-5-(3,4,5-trimethoxyphenyl)penta-1,4-dien-3-one] | 2.44 | 0.40
16.67 ± 0.07 µM | > 25 µM | – | Cc1nn(-c2ccccc2)c(Cl)c1/C=C/C(=O)/C=C/c1ccc2c(c1)OCO2 [Compound 7f, (1E,4E)-1-(Benzo[d][1,3]dioxol-5-yl)-5-(5-chloro-3-methyl-1-phenyl-1H-pyrazol-4-yl)penta-1,4-dien-3-one] | – | –
3.29 ± 0.18 µM | 6.74 ± 0.26 µM | 35.5 ± 0.51% | COc1ccc(/C=C/C(=O)/C=C/c2cn(-c3ccccc3)nc2-c2ccccc2)cc1O [Compound 10d, (1E,4E)-1-(1,3-Diphenyl-1H-pyrazol-4-yl)-5-(3-hydroxy-4-methoxyphenyl)penta-1,4-dien-3-one] | 2.55 | 1.25
15.1 ± 0.2 µM | 11.18 ± 0.04 µM | – | CCOc1cc(/C=C/C(=O)/C=C/c2c(C)nn(-c3cccc([N+](=O)[O-])c3)c2Cl)ccc1O [Compound 8e, (1E,4E)-1-[5-Chloro-3-methyl-1-(3-nitrophenyl)-1H-pyrazol-4-yl]-5-(4-hydroxy-3-ethoxyphenyl)penta-1,4-dien-3-one] | – | –
> 25 µM | > 25 µM | – | COc1ccc(/C=C/C(=O)/C=C/c2cn(-c3ccccc3)nc2-c2ccccc2)c(OC)c1 [Compound 10b, (1E,4E)-1-(2,4-Dimethoxyphenyl)-5-(1,3-diphenyl-1H-pyrazol-4-yl)penta-1,4-dien-3-one] | – | –
7.84 ± 0.07 µM | 13.03 ± 0.12 µM | – | COc1cc(/C=C/C(=O)/C=C/c2c(C)nn(-c3ccccc3)c2Cl)cc(OC)c1OC [Compound 7g, (1E,4E)-1-(5-Chloro-3-methyl-1-phenyl-1H-pyrazol-4-yl)-5-(3,4,5-trimethoxyphenyl)penta-1,4-dien-3-one] | – | –
5.5 ± 0.22 µM | 10.6 ± 1.38 µM | 40.76 ± 0.33% | COc1cc(/C=C/C(=O)/C=C/c2cn(-c3ccccc3)nc2-c2ccccc2)ccc1O [Compound 10c, (1E,4E)-1-(1,3-Diphenyl-1H-pyrazol-4-yl)-5-(4-hydroxy-3-methoxyphenyl)penta-1,4-dien-3-one] | – | 1.49
> 25 µM | > 25 µM | – | Cc1nn(-c2cccc([N+](=O)[O-])c2)c(Cl)c1/C=C/C(=O)/C=C/c1ccc2c(c1)OCO2 [Compound 8f, (1E,4E)-1-(Benzo[d][1,3]dioxol-5-yl)-5-(5-chloro-3-methyl-1-(3-nitrophenyl)-1H-pyrazol-4-yl)penta-1,4-dien-3-one] | – | –
7.25 ± 0.08 µM | 25.3 ± 0.3 µM | – | COc1ccc(/C=C/C(=O)/C=C/c2c(C)nn(-c3cccc([N+](=O)[O-])c3)c2Cl)cc1O [Compound 8d, (1E,4E)-1-[5-Chloro-3-methyl-1-(3-nitrophenyl)-1H-pyrazol-4-yl]-5-(3-hydroxy-4-methoxyphenyl)penta-1,4-dien-3-one] | – | –
7.71 ± 0.32 µM | 8 ± 0.87 µM | – | COc1cc(/C=C/C(=O)/C=C/c2c(C)nn(-c3ccccc3)c2Cl)ccc1O [Compound 7c, (1E,4E)-1-(5-Chloro-3-methyl-1-phenyl-1H-pyrazol-4-yl)-5-(4-hydroxy-3-methoxyphenyl)penta-1,4-dien-3-one] | 1.24 | 1.19
6.89 ± 0.31 µM | 7.19 ± 0.37 µM | 25.9 ± 0.33% | COc1ccc(/C=C/C(=O)/C=C/c2c(C)nn(-c3cccc([N+](=O)[O-])c3)c2Cl)cc1OC [Compound 8a, (1E,4E)-1-[5-Chloro-3-methyl-1-(3-nitrophenyl)-1H-pyrazol-4-yl]-5-(3,4-dimethoxyphenyl)penta-1,4-dien-3-one] | 3.05 | 2.93
6.6 ± 0.16 µM | 11.6 ± 1.2 µM | – | COc1ccc(/C=C/C(=O)/C=C/c2c(C)nn(-c3ccccc3)c2Cl)cc1OC [Compound 7a, (1E,4E)-1-(5-Chloro-3-methyl-1-phenyl-1H-pyrazol-4-yl)-5-(3,4-dimethoxyphenyl)penta-1,4-dien-3-one] | – | –
23.3 ± 2.37 µM | > 25 µM | – | COc1ccc(/C=C/C(=O)/C=C/c2cn(-c3ccccc3)nc2-c2ccccc2)cc1OC [Compound 10a, (1E,4E)-1-(3,4-Dimethoxyphenyl)-5-(1,3-diphenyl-1H-pyrazol-4-yl)penta-1,4-dien-3-one] | – | –
13.5 ± 1.43 µM | 13.2 ± 1.41 µM | – | CCOc1cc(/C=C/C(=O)/C=C/c2c(C)nn(-c3ccccc3)c2Cl)ccc1O [Compound 7e, (1E,4E)-1-(5-Chloro-3-methyl-1-phenyl-1H-pyrazol-4-yl)-5-(4-hydroxy-3-ethoxyphenyl)penta-1,4-dien-3-one] | – | –
7 ± 0.02 µM | 16.6 ± 0.45 µM | – | COc1cc(/C=C/C(=O)/C=C/c2c(C)nn(-c3cccc([N+](=O)[O-])c3)c2Cl)ccc1O [Compound 8c, (1E,4E)-1-[5-Chloro-3-methyl-1-(3-nitrophenyl)-1H-pyrazol-4-yl]-5-(4-hydroxy-3-methoxyphenyl)penta-1,4-dien-3-one] | – | –
2.56 ± 0.01 µM | 6.69 ± 0.04 µM | 22.1 ± 0.84% | COc1cc(/C=C/C(=O)/C=C/c2c(C)nn(-c3cccc([N+](=O)[O-])c3)c2Cl)cc(OC)c1O [Compound 8h, (1E,4E)-1-(5-Chloro-3-methyl-1-(3-nitrophenyl)-1H-pyrazol-4-yl)-5-(4-hydroxy-3,5-dimethoxyphenyl)penta-1,4-dien-3-one] | 6.01 | 2.30
6.14 ± 0.33 µM | 13.5 ± 1.53 µM | – | CCOc1cc(/C=C/C(=O)/C=C/c2cn(-c3ccccc3)nc2-c2ccccc2)ccc1O [Compound 10e, (1E,4E)-1-(1,3-Diphenyl-1H-pyrazol-4-yl)-5-(4-hydroxy-3-ethoxyphenyl)penta-1,4-dien-3-one] | – | –
14.3 ± 0.37 µM | > 25 µM | – | COc1cc(/C=C/C(=O)/C=C/c2cn(-c3ccccc3)nc2-c2ccccc2)cc(OC)c1OC [Compound 10g, (1E,4E)-1-(1,3-Diphenyl-1H-pyrazol-4-yl)-5-(3,4,5-trimethoxyphenyl)penta-1,4-dien-3-one] | – | –
13.3 ± 0.39 µM | > 25 µM | – | COc1ccc(/C=C/C(=O)/C=C/c2c(C)nn(-c3ccccc3)c2Cl)c(OC)c1 [Compound 7b, (1E,4E)-1-(5-Chloro-3-methyl-1-phenyl-1H-pyrazol-4-yl)-5-(2,4-dimethoxyphenyl)penta-1,4-dien-3-one] | – | –

Structure (SMILES) | IC50 (MDA-MB-231 [1]) | IC50 (HepG2 [2]) | inhibition at 20 µM (porcine brain tubulin) | SI MDA-MB-231 (MDA-MB-231 [3]) | SI HepG2 (HepG2 [4])
COc1cc(/C=C/C(=O)CC(=O)/C=C/c2ccc(O)c(OC)c2)ccc1O [curcumin, reference compound] | 20.7 ± 0.8 µM | 23.4 ± 7.27 µM | – | 1.72 | 1.51
COc1cc(/C=C/C(=O)/C=C/c2cn(-c3ccccc3)nc2-c2ccccc2)cc(OC)c1O [Compound 10h, (1E,4E)-1-(1,3-Diphenyl-1H-pyrazol-4-yl)-5-(4-hydroxy-3,5-dimethoxyphenyl)penta-1,4-dien-3-one] | 4.06 ± 0.02 µM | 4.98 ± 0.09 µM | 25.73 ± 0.15% | 2.51 | 2.05
COc1ccc(/C=C/C(=O)/C=C/c2c(C)nn(-c3ccccc3)c2Cl)cc1O [Compound 7d, (1E,4E)-1-(5-Chloro-3-methyl-1-phenyl-1H-pyrazol-4-yl)-5-(3-hydroxy-4-methoxyphenyl)penta-1,4-dien-3-one] | 5.61 ± 0.24 µM | 14.2 ± 0.77 µM | 52 ± 0.65% | – | 1.14
COc1cc(/C=C/C(=O)/C=C/c2c(C)nn(-c3ccccc3)c2Cl)cc(OC)c1O [Compound 7h, (1E,4E)-1-(5-Chloro-3-methyl-1-phenyl-1H-pyrazol-4-yl)-5-(4-hydroxy-3,5-dimethoxyphenyl)penta-1,4-dien-3-one] | 3.64 ± 0.02 µM | 6.03 ± 0.06 µM | 45.3 ± 0.81% | – | 2.14
